Assay results taken from PubChem BioAssay AID2060607 (Molecular Pharmacology Branch, DTP, NCI, 2025).

Test system: 876862-298-R-J1-PDC complex spheroids, viability % test/control
Test: Anticancer human tumor 876862-298-R-J1-PDC patient-derived endometrial carcinoma cell line growth inhibition [CLK]
Details: for IC50: curve of first compound; for viability, T/C: stronger effect = lower value
Summary of the method: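 Multi-cell-type spheroids combined patient-derived tumor cells with HUVEC endothelial cells and human mesenchymal stem cells. Paired agents were dosed in half-log steps down from about clinical Cmax, or from 10 microM where Cmax was unknown.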

[1] = second compound 0.0316 µM, first compound 0.0316 µM
[2] = second compound 0.0316 µM, first compound 0.1 µM
[3] = second compound 0.0316 µM, first compound 0.316 µM
[4] = second compound 0.0316 µM, first compound 1 µM
[5] = second compound 0.0316 µM, first compound 3.16 µM
[6] = second compound 0.0316 µM, first compound 10 µM
[7] = second compound 0.1 µM, first compound 0.0316 µM
[8] = second compound 0.1 µM, first compound 0.1 µM
[9] = second compound 0.1 µM, first compound 0.316 µM
[10] = second compound 0.1 µM, first compound 1 µM
[11] = second compound 0.1 µM, first compound 3.16 µM
[12] = second compound 0.1 µM, first compound 10 µM
[13] = second compound 0.316 µM, first compound 0.0316 µM
[14] = second compound 0.316 µM, first compound 0.1 µM
[15] = second compound 0.316 µM, first compound 0.316 µM
[16] = second compound 0.316 µM, first compound 1 µM
[17] = second compound 0.316 µM, first compound 3.16 µM
[18] = second compound 0.316 µM, first compound 10 µM
[19] = second compound 1 µM, first compound 0.0316 µM
[20] = second compound 1 µM, first compound 0.1 µM
[21] = second compound 1 µM, first compound 0.316 µM
[22] = second compound 1 µM, first compound 1 µM
[23] = second compound 1 µM, first compound 3.16 µM
[24] = second compound 1 µM, first compound 10 µM
[25] = second compound 3.16 µM, first compound 0.0316 µM
[26] = second compound 3.16 µM, first compound 0.1 µM
[27] = second compound 3.16 µM, first compound 0.316 µM
[28] = second compound 3.16 µM, first compound 1 µM
[29] = second compound 3.16 µM, first compound 3.16 µM
[30] = second compound 3.16 µM, first compound 10 µM
[31] = second compound 10 µM, first compound 0.0316 µM
[32] = second compound 10 µM, first compound 0.1 µM
[33] = second compound 10 µM, first compound 0.316 µM
[34] = second compound 10 µM, first compound 1 µM
[35] = second compound 10 µM, first compound 3.16 µM
[36] = second compound 10 µM, first compound 10 µM
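Further: spheroids exposed to drugs for 7 days before readout.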
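Wherever viability, T/C is given: 100% = DMSO vehicle control wells.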

For `O=C(c1cc(Cc2n[nH]c(=O)c3ccccc23)ccc1F)N1CCN(C(=O)C2CC2)CC1` + CNC(=O)c1ccc(Nc2nc(OC3CCCC3)c3c(-c4ccc5nc(C)oc5c4)c[nH]c3n2)c(OC)c1, the IC50 (second compound 0.0316 µM) was greater than 10 µM, the IC50 (second compound 0.1 µM) was 2.09 µM and the IC50 (second compound 0.316 µM) was less than 0.0316 µM. For the same compound, the IC50 (second compound 1 µM) was less than 0.0316 µM, the IC50 (second compound 3.16 µM) was less than 0.0316 µM and the IC50 (second compound 10 µM) was less than 0.0316 µM. It also gave a viability, T/C [1] of 70.5%, a viability, T/C [2] of 97% and a viability, T/C [3] of 84.5%. It also gave a viability, T/C [4] of 94.7%, a viability, T/C [5] of 96.8% and a viability, T/C [6] of 72.6%. It also gave a viability, T/C [7] of 47.4%, a viability, T/C [8] of 55% and a viability, T/C [9] of 50.6%. The viability, T/C [10] was 50.6%, the viability, T/C [11] was 51.5% and the viability, T/C [12] was 47.3%. The viability, T/C [13] was 49.1%, the viability, T/C [14] was 44.6% and the viability, T/C [15] was 40.6%. For the same compound, the viability, T/C [16] was 40.6%, the viability, T/C [17] was 39.4% and the viability, T/C [18] was 35.9%. It also gave a viability, T/C [19] of 39.1%, a viability, T/C [20] of 33.7% and a viability, T/C [21] of 29.6%. The viability, T/C [22] was 34.1%, the viability, T/C [23] was 31.3% and the viability, T/C [24] was 26.1%. For the same compound, the viability, T/C [25] was 25.5%, the viability, T/C [26] was 23.7% and the viability, T/C [27] was 20.4%. It also gave a viability, T/C [28] of 25.3%, a viability, T/C [29] of 23.3% and a viability, T/C [30] of 14.3%. The viability, T/C [31] was 22%, the viability, T/C [32] was 21.5% and the viability, T/C [33] was 20.8%. It also gave a viability, T/C [34] of 19.4%, a viability, T/C [35] of 23.5% and a viability, T/C [36] of 14.6%.
Compound `CC1(C)CCC(CN2CCN(c3ccc(C(=O)NS(=O)(=O)c4ccc(NCC5CCOCC5)c([N+](=O)[O-])c4)c(Oc4cnc5[nH]ccc5c4)c3)CC2)=C(c2ccc(Cl)cc2)C1` + CN1CCN(c2cc(C(=O)Nc3cc4cc(-c5cnn(C)c5)ccc4cn3)ccn2)CC1 has an IC50 (second compound 0.0316 µM) of 5.74 µM, an IC50 (second compound 0.1 µM) of less than 0.0316 µM and an IC50 (second compound 0.316 µM) of less than 0.0316 µM. The IC50 (second compound 1 µM) was less than 0.0316 µM, the IC50 (second compound 3.16 µM) was less than 0.0316 µM and the IC50 (second compound 10 µM) was less than 0.0316 µM. The viability, T/C [1] was 95%, the viability, T/C [2] was 89.1% and the viability, T/C [3] was 90.4%. It also gave a viability, T/C [4] of 89.2%, a viability, T/C [5] of 94.7% and a viability, T/C [6] of 11.1%. It also gave a viability, T/C [7] of 52.3%, a viability, T/C [8] of 47.5% and a viability, T/C [9] of 45.5%. The viability, T/C [10] was 46.1%, the viability, T/C [11] was 43.8% and the viability, T/C [12] was 3.97%. For the same compound, the viability, T/C [13] was 2.64%, the viability, T/C [14] was 2.13% and the viability, T/C [15] was 2.43%. It also gave a viability, T/C [16] of 2.21%, a viability, T/C [17] of 1.34% and a viability, T/C [18] of 0.56%. For the same compound, the viability, T/C [19] was 0.41%, the viability, T/C [20] was 1.28% and the viability, T/C [21] was 0.52%. The viability, T/C [22] was 0.24%, the viability, T/C [23] was 0.22% and the viability, T/C [24] was 0.53%. The viability, T/C [25] was 0.68%, the viability, T/C [26] was 0.51% and the viability, T/C [27] was 0.52%. It also gave a viability, T/C [28] of 0.34%, a viability, T/C [29] of 0.16% and a viability, T/C [30] of 0.09%. For the same compound, the viability, T/C [31] was 0.38%, the viability, T/C [32] was 0.67% and the viability, T/C [33] was 0.34%. The viability, T/C [34] was 0.45%, the viability, T/C [35] was 0.19% and the viability, T/C [36] was 1.19%.
